Tested on: Hydractinia echinata
Test: Hydractinia echinata test system (HeTS): reduction of Cs+-induced metamorphosis of larvae
Type: in vivo
Settings: Hydractinia echinata; MRC50 in mol/L = concentration for 50% decrease of metamorphosis vs control; larvae exposed 3 h with Cs+, read after 24 h; read-out: M: experimental Mlog(1/MRC50) (converted)
Method: The average (C) concentrations of these values were calculated too. The MRC50 value calculations (Chicu et al.) result from the graphical representation of the metamorphosis variation, M (%), (Y axis) function of the xenobiotic’s concentration (mol/L) (X axis), where the metamorphosis decreases with the rise of the xenobiotic’s concentration. Thus, the MRC50 value represents the xenobiotic’s concentration (mol/L) necessary for a 50% decrease of metamorphosis, with respect to control.
For each concentration of substance experiments were performed in triplicate and were repeated at least twice.
Colonies of H. echinata (Biologische Anstalt, Helgoland, Germany) were used to obtain eggs and larvae. The culture medium was artificial seawater (980 mosmol, pH 8.2, 18 °C). In laboratory an artificial metamorphosis can be synchronically started by the introduction of Cs^+ ions or by using seawater without Mg^2+ ions; it then lasts only 24 h. Under the action of external stimulus of Cs^+ ions or Cs^+ ions together with the tested compounds, one part of larvae further lives as such and another one is metamorphosized to the polyp form. The evaluation of the influence of the tested substance is very clear this way, the proposed method being based on this aspect.
H. echinata larvae were exposed to seawater containing Cs^+ and simultaneously one of the test substances for 3 h. The percentage of animals that underwent metamorphosis (development into polyps) was determined after 24 h. […] We chose a concentration of inducers which caused about […] to three quarters of the larvae to metamorphose in order to have conditions which are highly sensitive against an inhibitory influence. […] This concentration was termed MRC50 (for Metamorphosis Reduction Concentration) and is similar to the effective EC50 concentration that gives half maximal effective response.

| Structure (SMILES) | EC50 [µM] |
| --- | --- |
| CN(C)c1ccc(/N=N/c2ccccc2C(=O)O)cc1 [Compound 3, Methyl Red] | 209 |
| COc1cc(-c2ccc(-n3nc(-c4ccccc4)n[n+]3-c3ccccc3)c(OC)c2)ccc1-n1nc(-c2ccccc2)n[n+]1-c1ccccc1 [Compound 95, Tetrazolium Blue Chloride] | 91.2 |
| O=C(Nc1ccc(N=Nc2c(O)c(S(=O)(=O)O)cc3cc(S(=O)(=O)O)ccc23)cc1)c1ccc(N=Nc2ccc(O)c(C(=O)Nc3ccccc3)c2)cc1 [Compound 127, 3-Hydroxy-4-{2-[4-(4-{2-[4-hydroxy-3-(phenylcarbamoyl)phenyl]diazen-1-yl}-benzamido)phenyl]-diazen-1-yl}-naphthalene-2,7-disulfonic acid] | 58.9 |
| Nc1c(/N=N/c2ccc(-c3ccc(/N=N/c4cc(S(=O)(=O)O)c5ccccc5c4N)cc3)cc2)cc(S(=O)(=O)O)c2ccccc12 [Compound 82, Congo Red] | 32.4 |
| O=C(Nc1ccc(N=Nc2c(O)c(S(=O)(=O)O)cc3cc(S(=O)(=O)O)ccc23)cc1)c1ccc(N=Nc2c(O)c(S(=O)(=O)O)cc3cc(S(=O)(=O)O)ccc23)cc1 [Compound 110, 3-Hydroxy-4-[2-(4-{4-[2-(2-hydroxy-3,6-disulfonaphthalen-1-yl)diazen-1-yl]-benzamido}phenyl)-diazen-1-yl]-naphthalene-2,7-disulfonic acid] | 195 |
| O=C(O)c1ccc(N=Nc2ccc(O)c(C(=O)O)c2)cc1 [Compound 9, 5-[2-(4-Carboxyphenyl)diazen-1-yl]-2-hydroxybenzoic acid] | 447 |
| O=C(Nc1ccc(N=Nc2ccc(O)c(C(=O)Nc3ccccc3)c2)cc1)c1ccc(N=Nc2ccc(O)c(C(=O)Nc3ccccc3)c2)cc1 [Compound 117, 2-Hydroxy-5-{2-[4-(4-{2-[4-hydroxy-3-(phenylcarbamoyl)phenyl]diazen-1-yl}-benzamido)phenyl]-diazen-1-yl}-N-phenylbenzamide] | 166 |
| Cc1[nH]n(-c2ccc(S(=O)(=O)O)cc2)c(=O)c1N=Nc1ccc(NC(=O)c2ccc(N=Nc3c(C)[nH]n(-c4ccc(S(=O)(=O)O)cc4)c3=O)cc2)cc1 [Compound 112, 4-(3-Methyl-4-{2-[4-(4-{2-[5-methyl-3-oxo-2-(4-sulfophenyl)-2,3-dihydro-1H-pyrazol-4-yl]diazen-1-yl}-benzamido)phenyl]-diazen-1-yl}-5-oxo-2,5-dihydro-1H-pyrazol-1-yl)benzene-1-sulfonic acid] | 95.5 |
| O=S(=O)(O)c1cc(N=Nc2c(O)ccc3ccccc23)ccc1C=Cc1ccc(N=Nc2c(O)ccc3ccccc23)cc1S(=O)(=O)O [Compound 100, 5-[2-(2-Hydroxy-naphthalen-1-yl)diazen-1-yl]-2-(2-{4-[2-(2-hydroxynaphthalen-1-yl)diazen-1-yl]-2-sulfophenyl}ethenyl)-benzene-1-sulfonic acid] | 28.2 |
| Nc1c(N=Nc2ccc(NC(=O)c3ccc(N=Nc4ccc(O)c(C(=O)Nc5ccccc5)c4)cc3)cc2)cc(S(=O)(=O)O)c2ccccc12 [Compound 120, 4-Amino-3-{2-[4-(4-{2-[4-hydroxy-3-(phenyl-carbamoyl)phenyl]diazen-1-yl}benzamido)phenyl]-diazen-1-yl}naphthalene-1-sulfonic acid] | 25.1 |
| O=C(O)c1ccc(N=Nc2ccccc2)cc1 [Compound 2, 4-(2-Phenyldiazen-1-yl)benzoic acid] | 214 |
| O=S(=O)(O)c1ccc(O)c(/N=N/c2ccc(O)cc2O)c1 [Compound 21, 3-[(E)-2-(2,4-dihydroxyphenyl)-diazen-1-yl]-4-hydroxybenzene-1-sulfonic acid] | 53.7 |
| Nc1ccc(N=Nc2ccc(NC(=O)c3ccc(N=Nc4c(S(=O)(=O)O)cc5cc(S(=O)(=O)O)c(N=Nc6ccccc6)c(O)c5c4N)cc3)cc2)c(N)c1 [Compound 116, 4-Amino-3-{2-[4-({4-[2-(2,4-diamino-phenyl)diazen-1-yl]phenyl}carbamoyl)-phenyl]diazen-1-yl}-5-hydroxy-6-(2-phenyl-diazen-1-yl)-naphthalene-2,7-disulfonic acid] | 166 |

Same assay, conditions: Hydractinia echinata; parent dye, Table 2; read-out: F(1+2+...)e experimental toxicity log(1/MRC50) (converted)

| Structure (SMILES) | EC50 [µM] |
| --- | --- |
| O=C(O)c1ccc(N=Nc2ccc(O)c(C(=O)O)c2)cc1 [Compound 9, 5-[2-(4-Carboxyphenyl)diazen-1-yl]-2-hydroxybenzoic acid] | 447 |
| O=C(Nc1ccc(N=Nc2ccc(O)c(C(=O)Nc3ccccc3)c2)cc1)c1ccc(N=Nc2ccc(O)c(C(=O)Nc3ccccc3)c2)cc1 [Compound 117, 2-Hydroxy-5-{2-[4-(4-{2-[4-hydroxy-3-(phenylcarbamoyl)phenyl]diazen-1-yl}-benzamido)phenyl]-diazen-1-yl}-N-phenylbenzamide] | 166 |
| O=C(O)c1ccc(N=Nc2ccccc2)cc1 [Compound 2, 4-(2-Phenyldiazen-1-yl)benzoic acid] | 214 |

Same assay, conditions: Hydractinia echinata; product of enzymatic reduction/hydrolysis of the dye; read-out: F(1), F(2),... individual log(1/MRC50) toxicity value (converted)

| Structure (SMILES) | EC50 [µM] |
| --- | --- |
| Nc1ccc(C(=O)O)cc1 [APAB, p-aminobenzoic acid] | 457 |

Same assay, conditions: MRC50 in mol/L = concentration for 50% decrease of metamorphosis vs control; larvae exposed 3 h with Cs+, read after 24 h

| Structure (SMILES) | M: experimental Mlog(1/MRC50) |
| --- | --- |
| Cc1ccc(N=Nc2c(O)c(S(=O)(=O)[O-])cc3cc(S(=O)(=O)[O-])ccc23)c(C)c1.[Na+].[Na+] [Compound 38, Acid Red 26 (Ponceau Xilidine)] | 4.06 |
| COc1cc(-c2ccc(N=Nc3ccc4c(S(=O)(=O)[O-])cc(S(=O)(=O)[O-])c(N)c4c3O)c(OC)c2)ccc1N=Nc1ccc2c(S(=O)(=O)[O-])cc(S(=O)(=O)[O-])c(N)c2c1O.[Na+].[Na+].[Na+].[Na+] [Compound 92, Direct Blue 1] | 3.79 |
| Nc1c(N=Nc2ccc([N+](=O)[O-])cc2)c(S(=O)(=O)[O-])cc2cc(S(=O)(=O)[O-])c(N=Nc3ccccc3)c(O)c12.[Na+].[Na+] [Compound 74, Acid Black 1 (Amido Black 10B)] | 4.33 |
| COc1cc(-c2ccc([N+]#N)c(OC)c2)ccc1[N+]#N [Compound 94, Fast Blue B] | 4.30 |
| Nc1c(N=Nc2ccc([N+](=O)[O-])cc2)c(S(=O)(=O)[O-])cc2cc(S(=O)(=O)[O-])c(N=Nc3ccccc3)c(O)c12.[Na+].[Na+] [Compound 75, Acid Black 1 (Salt)] | 4.41 |
| O=S(=O)([O-])c1ccc(N=Nc2ccc(N=Nc3c(O)c(S(=O)(=O)[O-])cc4cc(S(=O)(=O)[O-])ccc34)c(S(=O)(=O)[O-])c2)cc1.[Na+].[Na+].[Na+].[Na+] [Compound 69, Ponceau S] | 3.97 |
| COc1cc(-c2ccc(N=Nc3c(S(=O)(=O)[O-])cc4cc(S(=O)(=O)[O-])cc(N)c4c3O)c(OC)c2)ccc1N=Nc1c(S(=O)(=O)[O-])cc2cc(S(=O)(=O)[O-])cc(N)c2c1O.[Na+].[Na+].[Na+].[Na+] [Compound 91, Direct Blue 15 (Aizen Direct Sky Blue 5B)] | 3.69 |
| CC(=O)Nc1cc(S(=O)(=O)[O-])cc2cc(S(=O)(=O)[O-])c(N=Nc3ccccc3C)c(O)c12.[Na+].[Na+] [Compound 43, Acid Red 35] | 3.63 |
| O=S(=O)([O-])c1ccc2c(N=Nc3ccccc3[As](=O)(O)O)c(O)c(S(=O)(=O)[O-])cc2c1.[Na+].[Na+] [Compound 40, Thorin] | 3.46 |
| Oc1ccc2ccccc2c1N=Nc1ccc(N=Nc2ccccc2)cc1 [Compound 65, Solvent Red 23 (Sudan III, Sudan V)] | 3.64 |
| CCOc1cc(NC(=O)c2ccccc2)c(OCC)cc1[N+]#N.[Cl-] [Compound 136, Fast Blue BB Salt] | 4.17 |
| CC(=O)Nc1cc(S(=O)(=O)[O-])cc2cc(S(=O)(=O)[O-])c(N=Nc3ccccc3)c(O)c12.[Na+].[Na+] [Compound 42, Acid Red 1 (Azophloxin)] | 3.66 |
| O=S(=O)([O-])c1cc(O)c2c(O)c(N=Nc3ccccc3)c(S(=O)(=O)[O-])cc2c1.[Na+].[Na+] [Compound 41, Acid Red 29 (Chromotrope 2R)] | 3.65 |
| O=C(Nc1ccc2c(O)c(N=Nc3ccc(N=Nc4ccc(S(=O)(=O)[O-])cc4)cc3S(=O)(=O)[O-])c(S(=O)(=O)[O-])cc2c1)Nc1ccc2c(O)c(N=Nc3ccc(N=Nc4ccc(S(=O)(=O)[O-])cc4)cc3S(=O)(=O)[O-])c(S(=O)(=O)[O-])cc2c1.[Na+].[Na+].[Na+].[Na+].[Na+].[Na+] [Compound 132, Direct Red 80 (Saturn Rot F3B)] | 3.80 |
| O=S(=O)([O-])c1ccc(N=Nc2c(O)ccc3ccccc23)c2ccccc12.[Na+] [Compound 56, Acid Red 88 (Fast Red AV)] | 3.31 |
| CN(C)c1ccc(N=Nc2ccccc2C(=O)[O-])cc1.[Na+] [Compound 4, Methyl Red (sodium salt)] | 3.79 |
| O=S(=O)([O-])c1ccc2c(N=Nc3ccc(S(=O)(=O)[O-])c4ccccc34)c(O)c(S(=O)(=O)[O-])cc2c1.[Na+].[Na+].[Na+] [Compound 57, Acid Red 27 (Amaranth, Food Red 9)] | 2.33 |

Same assay, conditions: product of enzymatic reduction/hydrolysis of the dye

| Structure (SMILES) | F(1), F(2),... individual log(1/MRC50) toxicity value |
| --- | --- |
| Nc1ccc(/C=C/c2ccc(N)cc2S(=O)(=O)O)c(S(=O)(=O)O)c1 [ADASDS, diaminostilbene disulfonic acid] | 3.43 |
